Test results from PMC10466336, “Chemical Probe for Imaging of Polo-like Kinase 4 and Centrioles” (JACS Au, 2023).

Molecular target: T1, GFP-Plk4(K41M) in transfected HeLa cells (Homo sapiens, UniProt O00444, K41M)
T1 construct: expressed in transfected cells; host or cells: HeLa
T1 sequence (O00444 1-970 K41M): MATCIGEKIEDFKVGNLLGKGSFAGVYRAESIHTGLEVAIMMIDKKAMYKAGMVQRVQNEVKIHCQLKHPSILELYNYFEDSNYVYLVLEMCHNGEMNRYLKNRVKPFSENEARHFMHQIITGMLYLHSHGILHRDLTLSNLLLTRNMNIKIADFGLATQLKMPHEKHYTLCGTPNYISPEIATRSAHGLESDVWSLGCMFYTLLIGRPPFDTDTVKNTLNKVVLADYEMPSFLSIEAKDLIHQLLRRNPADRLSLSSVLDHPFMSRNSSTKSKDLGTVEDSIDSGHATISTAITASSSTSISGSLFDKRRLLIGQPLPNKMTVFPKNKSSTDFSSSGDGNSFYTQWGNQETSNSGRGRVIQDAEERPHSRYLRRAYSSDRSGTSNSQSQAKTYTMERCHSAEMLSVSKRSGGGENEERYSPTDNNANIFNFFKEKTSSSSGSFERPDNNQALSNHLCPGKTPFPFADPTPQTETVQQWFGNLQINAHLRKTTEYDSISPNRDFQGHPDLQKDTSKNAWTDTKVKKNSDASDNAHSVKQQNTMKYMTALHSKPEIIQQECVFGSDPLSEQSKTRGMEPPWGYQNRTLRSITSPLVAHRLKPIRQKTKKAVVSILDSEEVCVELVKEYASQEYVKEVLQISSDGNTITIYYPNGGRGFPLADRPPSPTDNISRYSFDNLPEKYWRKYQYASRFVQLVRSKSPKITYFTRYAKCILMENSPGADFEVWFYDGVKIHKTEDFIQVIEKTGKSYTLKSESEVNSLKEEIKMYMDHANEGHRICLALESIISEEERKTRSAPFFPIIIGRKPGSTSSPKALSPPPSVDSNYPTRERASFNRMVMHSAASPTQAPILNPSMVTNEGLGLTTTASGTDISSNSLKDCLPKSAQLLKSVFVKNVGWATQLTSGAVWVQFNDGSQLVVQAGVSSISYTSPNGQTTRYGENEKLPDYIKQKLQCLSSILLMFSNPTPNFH
Assay: Live-cell confocal/STED imaging of overexpressed Plk4
Type: cell-based
Conditions: Cen-TCO 500 nM 1 h, tetrazine 500 nM, no wash (Figure S6)

Compound: Cc1nnc(COc2cccc3c2C2(OC3=O)c3ccc(N(C)C)cc3[Si](C)(C)c3cc(N(C)C)ccc32)nn1 [HD653, reference compound]
- unspecific signal among tetrazines after Cen-TCO labeling: lowest unspecific signal
